Measurements published in ChEMBL document CHEMBL1130478, “Mono and bis double ester prodrugs of novel aminomethyl-THF 1-methylcarbapenems” (Bioorg Med Chem Lett, 1997).
≈ marks a conversion by molar mass, not a printed value.

Assays:
Format in all cases: functional
Mus musculus [1] = assay: Antibacterial activity against Escherichia coli (311) infection in mice after single subcutaneous dose, activity expressed as ED50; settings: sc
Mus musculus [2] = assay: Antibacterial activity against Escherichia coli (311) infection in mice after single oral dose, activity expressed as ED50
Pseudomonas aeruginosa [3] = assay: In vitro antibacterial activity against Pseudomonas aeruginosa (ATCC 27853) without pre-incubation in mouse serum
Pseudomonas aeruginosa [4] = assay: In vitro antibacterial activity against P. aeruginosa(GC 1544 oprd) without pre-incubation in mouse serum
Escherichia coli [5] = assay: In vitro antibacterial activity expressed as MIC against E. coli(GC 1792) without pre-incubation in mouse serum
Enterococcus faecium [6] = assay: In vitro for antibacterial activity against E. faecium(GC 1182) without pre-incubation in mouse serum
Escherichia coli [7] = assay: In vitro antibacterial activity expressed as MIC against Escherichia coli (ATCC 25922) following pre-incubation in mouse serum
Staphylococcus aureus [8] = assay: In vitro antibacterial activity against S. aureus(GC 2220 MRSA) without pre-incubation in mouse serum
Escherichia coli [9] = assay: In vitro antibacterial activity expressed as MIC against E. coli(GC 2205) following pre-incubation in mouse serum
Morganella morganii [10] = assay: In vitro antibacterial activity against M. morganii(GC 2213) following pre-incubation in mouse serum
Enterococcus faecalis [11] = assay: In vitro antibacterial activity against E. faecalis(GC 842) following pre-incubation in mouse serum
Escherichia coli [12] = assay: In vitro antibacterial activity expressed as MIC against Escherichia coli (ATCC 25922) without pre-incubation in mouse serum
Staphylococcus aureus [13] = assay: In vitro antibacterial activity against S aureus(ATCC 29213) following preincubation in mouse serum
Enterococcus faecalis [14] = assay: In vitro antibacterial activity against E. faecalis(GC 842) without pre-incubation in mouse serum
Enterobacter cloacae [15] = assay: In vitro antibacterial activity against E. cloacae(GC 2209) without pre-incubation in mouse serum
Morganella morganii [16] = assay: In vitro antibacterial activity against M. morganii(GC 2213) without pre-incubation in mouse serum
[17] = tested on: Stenotrophomonas maltophilia; assay: In vitro antibacterial activity against X. maltophilia(GC 562) without pre-incubation in mouse serum
[18] = molecular target: T1, Dipeptidase 1 (Sus scrofa) (UniProt P22412); assay: Relative hydrolysis by hog Dehydropeptidase
T1 sequence (whole entry): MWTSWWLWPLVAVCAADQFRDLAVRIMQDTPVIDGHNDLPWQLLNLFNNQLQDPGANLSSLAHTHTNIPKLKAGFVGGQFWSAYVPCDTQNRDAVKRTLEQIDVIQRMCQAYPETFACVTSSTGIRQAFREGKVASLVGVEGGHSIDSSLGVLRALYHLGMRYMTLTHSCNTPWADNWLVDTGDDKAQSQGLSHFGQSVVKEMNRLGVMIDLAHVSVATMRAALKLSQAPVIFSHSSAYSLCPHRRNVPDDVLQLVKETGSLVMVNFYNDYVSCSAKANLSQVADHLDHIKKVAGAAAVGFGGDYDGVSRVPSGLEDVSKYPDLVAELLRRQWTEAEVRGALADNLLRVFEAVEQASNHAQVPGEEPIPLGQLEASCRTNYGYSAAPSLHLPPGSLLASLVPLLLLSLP

Staphylococcus aureus [19] = assay: In vitro antibacterial activity against S. aureus(GC 2220 MRSA) following pre-incubation in mouse serum
Escherichia coli [20] = assay: In vitro antibacterial activity expressed as MIC against E. coli(GC 1792) following pre-incubation in mouse serum
Pseudomonas aeruginosa [21] = assay: In vitro antibacterial activity against P. aeruginosa(GC 1544 oprd) following pre-incubation in mouse serum
Staphylococcus aureus [22] = assay: In vitro antibacterial activity against S. aureus(ATCC 29213) without pre-incubation in mouse serum
Pseudomonas aeruginosa [23] = assay: In vitro antibacterial activity against Pseudomonas aeruginosa (ATCC 27853) following pre-incubation in mouse serum
Enterococcus faecium [24] = assay: In vitro for antibacterial activity against E. faecium(GC 1182) following pre-incubation in mouse serum
Escherichia coli [25] = assay: In vitro antibacterial activity expressed as MIC against E. coli(GC 2205) without pre-incubation in mouse serum
[26] = tested on: Stenotrophomonas maltophilia; assay: In vitro antibacterial activity against X. maltophilia(GC 562) following pre-incubation in mouse serum
Citrobacter freundii [27] = assay: In vitro antibacterial activity against C. freundii(GC 2211) without preincubation in mouse serum
[28] = tested on: Acinetobacter calcoaceticus; assay: In vitro antibacterial activity against Acinetobacter calcoaceticus (GC 756) following preincubation in mouse serum
Enterobacter cloacae [29] = assay: In vitro antibacterial activity against E. cloacae(GC 2209) following preincubation in mouse serum
[30] = tested on: Acinetobacter calcoaceticus; assay: In vitro antibacterial activity against Acinetobacter calcoaceticus (GC 756) without preincubation in mouse serum
Citrobacter freundii [31] = assay: In vitro antibacterial activity against C. freundii(GC 2211) following pre-incubation in mouse serum

Row | Compound | ED50 (Mus musculus [1]) | ED50 (Mus musculus [2]) | MIC (Pseudomonas aeruginosa [3]) | MIC (Pseudomonas aeruginosa [4]) | MIC (Escherichia coli [5]) | MIC (Enterococcus faecium [6]) | MIC (Escherichia coli [7]) | MIC (Staphylococcus aureus [8]) | MIC (Escherichia coli [9]) | MIC (Morganella morganii [10]) | MIC (Enterococcus faecalis [11]) | MIC (Escherichia coli [12]) | MIC (Staphylococcus aureus [13]) | MIC (Enterococcus faecalis [14]) | MIC (Enterobacter cloacae [15]) | MIC (Morganella morganii [16]) | MIC [17] | MIC (Staphylococcus aureus [19]) | MIC (Escherichia coli [20]) | MIC (Pseudomonas aeruginosa [21]) | other results
1 | CC(OC(=O)OC1=CCCCC1)OC(=O)C1=C(S[C@@H]2CCO[C@@H]2CNC(=O)OCOC(=O)C(C)C)[C@H](C)C2[C@@H]([C@@H](C)O)C(=O)N12 (stereo not given in full) | 1.9 mg/kg | 1.5 mg/kg | – | – | – | – | – | – | – | – | – | – | – | – | – | – | – | – | – | – | –
2 | CCOC(=O)OCOC(=O)NCC1OCCC1SC1=C(C(=O)OCOC(=O)C(C)C)N2C(=O)[C@H]([C@@H](C)O)C2[C@H]1C (stereo not given in full) | 0.37 mg/kg | 0.87 mg/kg | – | – | – | – | – | – | – | – | – | – | – | – | – | – | – | – | – | – | –
3 | CCOC(=O)OCOC(=O)C1=C(S[C@@H]2CCO[C@@H]2CNC(=O)OC(C)OC(C)=O)[C@H](C)C2[C@@H]([C@@H](C)O)C(=O)N12 (stereo not given in full) | 0.59 mg/kg | 0.83 mg/kg | > 128 µg/mL | > 128 µg/mL | 8 µg/mL (≈ 13.9 µM) | > 128 µg/mL | < 0.06 µg/mL | > 128 µg/mL | 0.06 µg/mL (≈ 0.104 µM) | 1 µg/mL (≈ 1.74 µM) | 2 µg/mL (≈ 3.48 µM) | 4 µg/mL (≈ 6.96 µM) | 0.03 µg/mL (≈ 0.0522 µM) | 64 µg/mL (≈ 111 µM) | 64 µg/mL (≈ 111 µM) | 32 µg/mL (≈ 55.7 µM) | > 128 µg/mL | 2 µg/mL (≈ 3.48 µM) | < 0.06 µg/mL | 32 µg/mL (≈ 55.7 µM) | Relative hydrolysis [18]: 4.9; MIC (Staphylococcus aureus [22]): 8 µg/mL (≈ 13.9 µM); MIC (Pseudomonas aeruginosa [23]): 16 µg/mL (≈ 27.8 µM); MIC (Enterococcus faecium [24]): 128 µg/mL (≈ 223 µM); MIC (Escherichia coli [25]): 1 µg/mL (≈ 1.74 µM); MIC [26]: > 128 µg/mL; MIC (Citrobacter freundii [27]): 128 µg/mL (≈ 223 µM); MIC [28]: 4 µg/mL (≈ 6.96 µM); MIC (Enterobacter cloacae [29]): 0.12 µg/mL (≈ 0.209 µM); MIC [30]: > 128 µg/mL; MIC (Citrobacter freundii [31]): 0.25 µg/mL (≈ 0.435 µM)
4 | CC(=O)OC(C)OC(=O)NC[C@H]1OCC[C@H]1SC1=C(C(=O)[O-])N2C(=O)[C@H]([C@@H](C)O)C2[C@H]1C.[Na+] (stereo not given in full) | 0.65 mg/kg | 4.9 mg/kg | 64 µg/mL | > 128 µg/mL | 0.25 µg/mL | > 128 µg/mL | < 0.06 µg/mL | 32 µg/mL | < 0.06 µg/mL | 1 µg/mL | 1 µg/mL | 0.12 µg/mL | < 0.06 µg/mL | 4 µg/mL | 2 µg/mL | 2 µg/mL | > 128 µg/mL | 8 µg/mL | < 0.06 µg/mL | 32 µg/mL | MIC (Staphylococcus aureus [22]): 0.5 µg/mL; MIC (Pseudomonas aeruginosa [23]): 16 µg/mL; MIC (Enterococcus faecium [24]): 64 µg/mL; MIC (Escherichia coli [25]): 0.12 µg/mL; MIC [26]: > 128 µg/mL; MIC (Citrobacter freundii [27]): 4 µg/mL; MIC [28]: 4 µg/mL; MIC (Enterobacter cloacae [29]): < 0.06 µg/mL; MIC [30]: 32 µg/mL; MIC (Citrobacter freundii [31]): 0.25 µg/mL
5 | CCCC(=O)OCOC(=O)NC[C@H]1OCC[C@H]1SC1=C(C(=O)[O-])N2C(=O)[C@H]([C@@H](C)O)C2[C@H]1C.[Na+] (stereo not given in full) | 0.26 mg/kg | 3.4 mg/kg | 64 µg/mL | > 128 µg/mL | 0.5 µg/mL | 128 µg/mL | < 0.06 µg/mL | 8 µg/mL | < 0.06 µg/mL | 0.5 µg/mL | 1 µg/mL | 0.5 µg/mL | 0.03 µg/mL | 2 µg/mL | 2 µg/mL | 2 µg/mL | > 128 µg/mL | 1 µg/mL | < 0.06 µg/mL | 16 µg/mL | Relative hydrolysis [18]: 5.9; MIC (Staphylococcus aureus [22]): 0.12 µg/mL; MIC (Pseudomonas aeruginosa [23]): 8 µg/mL; MIC (Enterococcus faecium [24]): 64 µg/mL; MIC (Escherichia coli [25]): < 0.06 µg/mL; MIC [26]: > 128 µg/mL; MIC (Citrobacter freundii [27]): 4 µg/mL; MIC [28]: 2 µg/mL; MIC (Enterobacter cloacae [29]): 0.06 µg/mL; MIC [30]: 32 µg/mL; MIC (Citrobacter freundii [31]): 0.12 µg/mL
6 | CC(C)OC(=O)OC(C)OC(=O)C1=C(S[C@@H]2CCO[C@@H]2CNC(=O)OCOC(=O)C(C)C)[C@H](C)C2[C@@H]([C@@H](C)O)C(=O)N12 (stereo not given in full) | 2.1 mg/kg | 1.4 mg/kg | – | – | – | – | – | – | – | – | – | – | – | – | – | – | – | – | – | – | –
7 | CCCC(=O)OCOC(=O)NC[C@H]1OCC[C@H]1SC1=C(C(=O)OCOC(=O)OCC)N2C(=O)[C@H]([C@@H](C)O)C2[C@H]1C (stereo not given in full) | 0.49 mg/kg | 1.3 mg/kg | – | – | – | – | – | – | – | – | – | – | – | – | – | – | – | – | – | – | –
8 | CCOC(=O)OCOC(=O)C1=C(S[C@@H]2CCO[C@@H]2CN)[C@H](C)C2[C@@H]([C@@H](C)O)C(=O)N12.Cl (stereo not given in full) | 0.62 mg/kg | 8.2 mg/kg | 128 µg/mL | > 128 µg/mL | 0.5 µg/mL | 128 µg/mL | < 0.06 µg/mL | 64 µg/mL | < 0.06 µg/mL | 0.5 µg/mL | 2 µg/mL | 0.5 µg/mL | 0.03 µg/mL | 16 µg/mL | 2 µg/mL | 16 µg/mL | > 128 µg/mL | 2 µg/mL | < 0.06 µg/mL | 32 µg/mL | Relative hydrolysis [18]: 11; MIC (Staphylococcus aureus [22]): 1 µg/mL; MIC (Pseudomonas aeruginosa [23]): 8 µg/mL; MIC (Enterococcus faecium [24]): 128 µg/mL; MIC (Escherichia coli [25]): 1 µg/mL; MIC [26]: > 128 µg/mL; MIC (Citrobacter freundii [27]): 4 µg/mL; MIC [28]: 2 µg/mL; MIC (Enterobacter cloacae [29]): 0.12 µg/mL; MIC [30]: 64 µg/mL; MIC (Citrobacter freundii [31]): 0.25 µg/mL
9 | CCN(C(C)C)C(C)C.C[C@H]1C(S[C@@H]2CCO[C@@H]2CNC(=O)OCOC(=O)C(C)(C)C)=C(C(=O)O)N2C(=O)[C@H]([C@@H](C)O)C12 (stereo not given in full) | 0.65 mg/kg | 2.9 mg/kg | – | – | – | – | – | – | – | – | – | – | – | – | – | – | – | – | – | – | –
10 | C[C@@H](O)[C@H]1C(=O)N2C(C(=O)O)=C(SCCNC=N)C[C@H]12 [IMIPENEM ANHYDROUS] | 0.7 mg/kg | 79 mg/kg | – | – | – | – | – | – | – | – | – | – | – | – | – | – | – | – | – | – | –
